Reference: PMC7508466 (Bioorganic & medicinal chemistry letters, 2020)
Entries after “also recorded” stand apart in the source; their conditions may differ.

Tests used:
human sst2 receptor = human sst2 receptor (Homo sapiens, UniProt P30874); test: cAMP functional assay in CHO-K1 cells stably expressing human sst2 receptor; format: cell-based; settings: for sst2 pEC50±SEM: human sst2, CHO-K1 cells, cAMP, average of two or more independent measurements
hERG channel = hERG channel (Homo sapiens, UniProt Q12809); test: hERG inhibition binding assay
CYP450 3A4 = CYP450 3A4 (Homo sapiens, UniProt P08684); test: in vitro screening CYP450 inhibition assay, 3A4; format: in vitro ADME; settings: top concentration tested 10 μM
CYP450 2C9 = CYP450 2C9 (Homo sapiens, UniProt P11712); test: in vitro screening CYP450 inhibition assay, 2C9; format: in vitro ADME; settings: top concentration tested 10 μM
CYP450 2C19 = CYP450 2C19 (Homo sapiens, UniProt P33261); test: in vitro screening CYP450 inhibition assay, 2C19; format: in vitro ADME; settings: top concentration tested 10 μM
CYP450 2D6 = CYP450 2D6 (Homo sapiens, UniProt P10635); test: in vitro screening CYP450 inhibition assay, 2D6; format: in vitro ADME; settings: top concentration tested 10 μM
[1] = oral administration to male SD rats; format: in vivo, rat

human sst2 receptor, sequence (P30874 whole entry): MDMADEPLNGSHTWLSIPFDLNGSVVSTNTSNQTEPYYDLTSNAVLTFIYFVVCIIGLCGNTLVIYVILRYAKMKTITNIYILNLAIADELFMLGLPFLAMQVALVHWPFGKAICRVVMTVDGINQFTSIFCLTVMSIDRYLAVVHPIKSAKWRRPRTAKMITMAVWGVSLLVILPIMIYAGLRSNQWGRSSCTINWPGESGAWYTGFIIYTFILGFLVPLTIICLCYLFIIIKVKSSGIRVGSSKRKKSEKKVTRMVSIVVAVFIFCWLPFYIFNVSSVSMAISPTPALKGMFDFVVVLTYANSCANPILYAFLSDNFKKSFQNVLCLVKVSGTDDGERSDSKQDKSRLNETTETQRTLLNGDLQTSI
hERG channel, sequence (Q12809 whole entry): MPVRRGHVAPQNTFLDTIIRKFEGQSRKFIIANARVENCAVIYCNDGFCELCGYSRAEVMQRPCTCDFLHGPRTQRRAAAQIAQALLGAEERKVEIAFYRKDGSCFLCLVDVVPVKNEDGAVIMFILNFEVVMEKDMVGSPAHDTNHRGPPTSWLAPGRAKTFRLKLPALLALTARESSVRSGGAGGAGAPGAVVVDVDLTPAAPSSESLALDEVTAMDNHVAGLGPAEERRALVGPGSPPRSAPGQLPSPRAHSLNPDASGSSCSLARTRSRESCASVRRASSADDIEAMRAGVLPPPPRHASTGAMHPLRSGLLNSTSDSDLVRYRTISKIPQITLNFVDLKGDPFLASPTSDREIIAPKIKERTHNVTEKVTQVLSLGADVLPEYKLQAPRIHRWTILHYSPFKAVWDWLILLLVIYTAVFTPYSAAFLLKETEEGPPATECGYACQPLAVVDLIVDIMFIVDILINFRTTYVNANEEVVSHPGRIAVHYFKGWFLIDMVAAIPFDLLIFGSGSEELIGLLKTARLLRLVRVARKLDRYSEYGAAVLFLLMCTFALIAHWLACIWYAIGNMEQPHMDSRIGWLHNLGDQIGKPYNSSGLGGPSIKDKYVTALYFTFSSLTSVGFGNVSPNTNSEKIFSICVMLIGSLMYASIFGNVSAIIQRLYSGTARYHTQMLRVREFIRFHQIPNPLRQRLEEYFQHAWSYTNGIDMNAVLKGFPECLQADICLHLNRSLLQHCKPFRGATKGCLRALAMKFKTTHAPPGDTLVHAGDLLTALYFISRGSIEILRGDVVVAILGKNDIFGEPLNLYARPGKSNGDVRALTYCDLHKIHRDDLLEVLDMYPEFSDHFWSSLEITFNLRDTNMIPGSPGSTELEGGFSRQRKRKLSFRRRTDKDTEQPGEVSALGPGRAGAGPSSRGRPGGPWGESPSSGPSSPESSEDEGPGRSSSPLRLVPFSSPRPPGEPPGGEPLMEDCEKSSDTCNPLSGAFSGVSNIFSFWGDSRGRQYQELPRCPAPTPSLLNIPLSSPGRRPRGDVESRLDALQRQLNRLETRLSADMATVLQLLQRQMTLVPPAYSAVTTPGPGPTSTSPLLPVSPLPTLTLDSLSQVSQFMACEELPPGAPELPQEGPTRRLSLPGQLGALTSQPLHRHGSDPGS
CYP450 2D6, sequence (P10635 whole entry): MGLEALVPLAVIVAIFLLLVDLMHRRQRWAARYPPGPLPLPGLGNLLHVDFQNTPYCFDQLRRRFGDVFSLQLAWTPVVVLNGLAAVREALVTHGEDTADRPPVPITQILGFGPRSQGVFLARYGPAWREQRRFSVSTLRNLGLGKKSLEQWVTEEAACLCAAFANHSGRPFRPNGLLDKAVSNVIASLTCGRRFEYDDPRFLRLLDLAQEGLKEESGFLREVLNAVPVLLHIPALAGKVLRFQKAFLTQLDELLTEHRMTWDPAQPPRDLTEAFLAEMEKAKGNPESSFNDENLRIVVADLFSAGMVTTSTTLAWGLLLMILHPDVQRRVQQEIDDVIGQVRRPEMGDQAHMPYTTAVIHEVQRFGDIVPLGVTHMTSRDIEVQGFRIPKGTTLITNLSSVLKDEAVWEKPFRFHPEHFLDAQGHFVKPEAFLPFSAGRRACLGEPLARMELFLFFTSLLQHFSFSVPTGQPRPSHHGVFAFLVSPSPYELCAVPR
CYP450 3A4, sequence (P08684 whole entry): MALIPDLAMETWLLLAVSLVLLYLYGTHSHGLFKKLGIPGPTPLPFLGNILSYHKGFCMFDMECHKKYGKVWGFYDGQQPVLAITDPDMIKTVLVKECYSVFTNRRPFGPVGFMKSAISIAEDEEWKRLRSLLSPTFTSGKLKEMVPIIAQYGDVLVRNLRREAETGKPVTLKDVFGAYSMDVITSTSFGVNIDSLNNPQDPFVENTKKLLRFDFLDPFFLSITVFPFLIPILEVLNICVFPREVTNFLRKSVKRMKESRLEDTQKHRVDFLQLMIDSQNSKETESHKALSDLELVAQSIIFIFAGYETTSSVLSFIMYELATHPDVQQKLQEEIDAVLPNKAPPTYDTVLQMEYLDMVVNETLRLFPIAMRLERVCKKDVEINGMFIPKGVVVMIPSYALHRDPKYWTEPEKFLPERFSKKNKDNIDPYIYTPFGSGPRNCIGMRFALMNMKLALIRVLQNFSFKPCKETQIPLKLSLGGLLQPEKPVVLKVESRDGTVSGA
CYP450 2C9, sequence (P11712 whole entry): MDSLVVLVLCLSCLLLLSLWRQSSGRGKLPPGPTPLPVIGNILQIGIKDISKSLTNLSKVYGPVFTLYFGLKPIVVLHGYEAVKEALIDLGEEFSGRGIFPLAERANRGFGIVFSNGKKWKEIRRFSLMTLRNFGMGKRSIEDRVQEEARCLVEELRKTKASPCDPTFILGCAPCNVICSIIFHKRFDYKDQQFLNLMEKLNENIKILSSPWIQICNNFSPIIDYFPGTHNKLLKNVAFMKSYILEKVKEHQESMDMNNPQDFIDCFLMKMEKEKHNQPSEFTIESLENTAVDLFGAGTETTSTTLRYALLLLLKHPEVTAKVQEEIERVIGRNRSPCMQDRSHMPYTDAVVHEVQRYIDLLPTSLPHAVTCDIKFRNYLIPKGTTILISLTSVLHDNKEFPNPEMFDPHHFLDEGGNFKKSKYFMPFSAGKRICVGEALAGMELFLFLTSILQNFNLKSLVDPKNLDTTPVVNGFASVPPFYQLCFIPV
CYP450 2C19, sequence (P33261 whole entry): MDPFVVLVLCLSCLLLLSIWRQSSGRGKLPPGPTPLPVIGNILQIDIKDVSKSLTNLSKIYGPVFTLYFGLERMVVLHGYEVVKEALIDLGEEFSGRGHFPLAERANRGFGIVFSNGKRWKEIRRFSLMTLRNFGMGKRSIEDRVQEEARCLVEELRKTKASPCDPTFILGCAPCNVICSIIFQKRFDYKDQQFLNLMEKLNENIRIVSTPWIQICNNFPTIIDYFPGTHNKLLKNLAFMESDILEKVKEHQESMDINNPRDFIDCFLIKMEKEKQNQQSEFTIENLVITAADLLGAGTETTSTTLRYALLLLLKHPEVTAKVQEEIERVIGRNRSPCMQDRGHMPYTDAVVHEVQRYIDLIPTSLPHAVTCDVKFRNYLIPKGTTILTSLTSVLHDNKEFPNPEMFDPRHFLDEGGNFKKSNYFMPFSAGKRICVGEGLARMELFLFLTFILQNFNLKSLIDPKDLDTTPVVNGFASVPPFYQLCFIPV

| Structure (SMILES) | sst2 pEC50±SEM (human sst2 receptor) | also measured |
| --- | --- | --- |
| Cc1cc(C)cc(N2C=Nc3cc(Cl)c(-c4cccc(O)c4)cc3C2C(=O)NC[C@H](C)N)c1 (some centres unmarked) [Compound 5] | – | sst2 agonist activity (in words) (human sst2 receptor; human sst2, cAMP): completely suppressed its ability to reduce cAMP production |
| Cc1cc(C)cc(N2C=Nc3ccc(-c4cccc(O)c4)cc3C2C(=O)N(C)C[C@H](C)N)c1 (some centres unmarked) [Compound 6] | – | decrease of sst2 agonist activity relative to compound 4 (human sst2 receptor; human sst2, cAMP): more than 10 fold |
| CC[C@H](N)CN(C)C(=O)C1c2cc(-c3cccc(O)c3)c(Cl)cc2N=CN1c1cc(C)cc(C)c1 (some centres unmarked) [Compound 7] | 8.0 ± 0.1 | enhancement of sst2 potency relative to compound 4 (human sst2 receptor; human sst2, cAMP): about 3 fold |
| CC[C@H](N)CN(C)C(=O)C1c2cc(-c3cccc(O)c3)c(C)cc2N=CN1c1cc(C)cc(C)c1 (some centres unmarked) [Compound 8] | 8.4 ± 0.2 | – |
| Cc1cc(C)cc(N2C=Nc3cc(C)c(-c4cccc(O)c4)cc3C2C(=O)N(C)C[C@@H]2CCCN2)c1 (some centres unmarked) [Compound 9] | 8.9 ± 0.1 | – |
| Cc1cc(Cl)cc(N2C=Nc3cc(C)c(-c4cccc(O)c4)cc3C2C(=O)N(C)C[C@@H]2CCCN2)c1 (some centres unmarked) [Compound 10] | 9.5 ± 0.2 | – |
| Cc1cc(F)cc(N2C=Nc3cc(C)c(-c4cccc(O)c4)cc3C2C(=O)N(C)C[C@@H]2CCCN2)c1 (some centres unmarked) [Compound 11] | 9.0 ± 0.1 | – |
| Cc1cc(Cl)cc(N2C=Nc3cc(C)c(-c4ccccc4)cc3C2C(=O)N(C)C[C@@H]2CCCN2)c1 (some centres unmarked) [Compound 12] | 7.3 ± 0.0 | sst2 agonist activity (in words) (human sst2 receptor; human sst2, cAMP): significantly diminished sst2 agonist activity |
| Cc1cc(Cl)cc(N2C=Nc3cc(C)c(-c4cccc(C#N)c4)cc3C2C(=O)N(C)C[C@@H]2CCCN2)c1 (some centres unmarked) [Compound 13] | 8.3 ± 0.1 | – |
| Cc1cc(Cl)cc(N2C=Nc3cc(C)c(-c4cncc(C#N)c4)cc3C2C(=O)N(C)C[C@@H]2CCCN2)c1 (some centres unmarked) [Compound 14] | 7.9 ± 0.4 | – |
| Cc1cc(Cl)cc(N2C=Nc3cc(C)c(-c4cccc(C(F)(F)F)c4)cc3C2C(=O)N(C)C[C@@H]2CCCN2)c1 (some centres unmarked) [Compound 15] | 7.3 ± 0.0 | – |
| Cc1cc(Cl)cc(N2C=Nc3cc(C)c(-c4cccc(Cl)c4)cc3C2C(=O)N(C)C[C@@H]2CCCN2)c1 (some centres unmarked) [Compound 16] | 7.4 ± 0.0 | – |
| Cc1cc(Cl)cc(N2C=Nc3cc(C)c(-c4cnn(C)c4)cc3C2C(=O)N(C)C[C@@H]2CCCN2)c1 (some centres unmarked) [Compound 17] | 6.8 ± 0.1 | sst2 agonist activity (in words) (human sst2 receptor; human sst2, cAMP): substantially reduced potency |
| Cc1cc(Cl)cc(N2C=Nc3cc(C)c(-c4cc(F)cc(F)c4)cc3C2C(=O)N(C)C[C@@H]2CCCN2)c1 (some centres unmarked) [Compound 19] | 8.4 ± 0.0 | – |
| COc1cc(F)cc(-c2cc3c(cc2C)N=CN(c2cc(C)cc(Cl)c2)C3C(=O)N(C)C[C@@H]2CCCN2)c1 (some centres unmarked) [Compound 20] | 8.2 ± 0.1 | – |
| Cc1cc(Cl)cc(N2C=Nc3cc(C)c(-c4cccc(NS(C)(=O)=O)c4)cc3C2C(=O)N(C)C[C@@H]2CCCN2)c1 (some centres unmarked) [Compound 23] | 6.9 ± 0.1 | – |
| Cc1cc(Cl)cc(N2C=Nc3cc(C)c(-c4ccc5[nH]c(=O)[nH]c5c4)cc3C2C(=O)N(C)C[C@@H]2CCCN2)c1 (some centres unmarked) [Compound 24] | 8.3 ± 0.2 | – |
| Cc1cc(Cl)cc(N2C=Nc3cc(C)c(-c4cncc(O)c4)cc3C2C(=O)N(C)C[C@@H]2CCCN2)c1 (some centres unmarked) [Compound 25] | 8.1 ± 0.1 | – |
| Cc1cc(Cl)cc(N2C=Nc3cc(C)c(-c4cccc(F)c4O)cc3C2C(=O)N(C)C[C@@H]2CCCN2)c1 (stereo partly drawn) [Compound 28, 3-(3-chloro-5-methylphenyl)-6-(3-fluoro-2-hydroxyphenyl)-N,7-dimethyl-N-{[(2S)-pyrrolidin-2-yl]methyl}-3,4-dihydroquinazoline-4-carboxamide] | – | hERG inhibition (in words) (hERG channel): moderate inhibitors; also recorded: weak inhibition; CYP 3A4 inhibition (in words) (CYP450 3A4): little inhibition; also recorded: no inhibition; CYP 2C9 inhibition (in words) (CYP450 2C9): little inhibition; also recorded: no inhibition; CYP 2C19 inhibition (in words) (CYP450 2C19): little inhibition; also recorded: no inhibition; CYP 2D6 inhibition (in words) (CYP450 2D6): little inhibition; also recorded: no inhibition; oral exposure (in words) [1]: limited oral exposure |
| Cc1cc(Cl)cc(N2C=Nc3cc(C)c(-c4cc(F)ccc4O)cc3C2C(=O)N(C)C[C@@H]2CCCN2)c1 (some centres unmarked) [Compound 29] | 8.7 ± 0.0 | – |
| Cc1cc(Cl)cc(N2C=Nc3cc(C)c(-c4cc(O)cc(C#N)c4)cc3C2C(=O)N(C)C[C@@H]2CCCN2)c1 (some centres unmarked) [Compound 30] | 9.4 ± 0.1 | sst2 agonist activity (in words) (human sst2 receptor; human sst2, cAMP): tolerable |
| Cc1cc(Cl)cc(N2C=Nc3cc(C)c(-c4cc(F)cc(C(N)=O)c4)cc3C2C(=O)N(C)C[C@@H]2CCCN2)c1 (some centres unmarked) [Compound 31] | – | sst2 agonist activity (in words) (human sst2 receptor; human sst2, cAMP): as potent as compound 26; hERG inhibition (in words) (hERG channel): moderate inhibitors |
